# Columns and labels:
# [1] = molecular target: T1, GAT-1 (Macaca mulatta, UniProt H9ELS5); assay: PET brain imaging with kinetic modeling (1TCM), baseline and tiagabine blocking scans; format: in vivo, rhesus monkeys (Macaca mulatta); settings: for Median VT across ROIs: 1TCM
# T1 construct: from tissue; host or cells: brain of living rhesus monkeys (in vivo PET)
# Protocol: Twenty scans were acquired from 4 rhesus monkeys (Macaca mulatta). Each monkey underwent baseline and blocking scans with ^18F-GATT-31, ^18F-GATT-34, ^18F-GATT-39, or ^18F-GATT-44 (Fig. 1) on a Focus-220 small-animal PET scanner (Siemens Healthineers).
# Before each scan, each monkey was sedated with alfaxalone (2 mg/kg), midazolam (0.3 mg/kg), and dexmedetomidine (0.01 mg/kg), and anesthesia was maintained with 1.5%–2.5% isoflurane. Heart rate, blood pressure, respiration rate, and oxygen saturation were monitored continuously. An intravenous line was placed in the saphenous or cephalic vein for delivery of the radiotracer, as well as tiagabine during blocking studies (0.5 mg/kg administered 19 ± 4 min before radiotracer injections). A catheter was placed in the radial or tibial artery for blood sampling.
# Before injection, a transmission scan was acquired. Starting with injection of the radiotracer, PET emission data were acquired in list-mode format and binned into 45 frames (6 × 30 s, 3 × 1 min, 2 × 2 min, and 34 × 5 min).
# For region-of-interest (ROI) definition, each PET image was registered to an in-house rhesus monkey anatomical MRI template using the concatenation of a rigid-body transformation between the summed PET image (0–10 min) and corresponding monkey’s MRI (using the FMRIB Linear Image Registration Tool) and a nonlinear transformation matrix estimated between the monkey’s MRI and the MRI template (BioImage Suite software version 3.01). Regional time–activity curves were extracted for the following 11 ROIs: brain stem, caudate, cerebellum, cingulate cortex, frontal cortex, hippocampus, insula, occipital cortex, putamen, temporal cortex, and thalamus.
# For each baseline and blocking scan, kinetic analysis was performed using a 1-tissue compartment model (1TCM), a reversible 2-tissue compartment model (2TCM; k4 > 0), and an irreversible 2-tissue compartment model (2TiCM; k4 = 0), including a blood volume fraction (Vb) term and a time-delay term. Vb was estimated for each time–activity curve using the whole-blood curve fitted with a sum of exponentials. The time delay (Δt) between the input function and the brain was estimated by fitting the first 10 min of the whole-brain time–activity curve to a 1TCM with 3 parameters: K1, Vb, and Δt (k2 was set to 0 because of the negligible radiotracer washout during the first 10 min). This estimated time delay value was then used in the time–activity curve fits. The primary parameters of interest were the influx constant (K1, expressed in microliters per minute per cubic centimeter, since values were low), the volume of distribution (VT, expressed in milliliters per cubic centimeter), and the net influx constant (Ki, expressed in milliliters per minute per cubic centimeter) for 2TiCM.
# [2] = molecular target: T1, GAT-1; assay: Time stability of VT with shortened scan duration; format: in vivo, rhesus monkeys (Macaca mulatta); settings: for Mean percent difference in VT on shortening scan from 180 to 120 min: baseline, 3 monkeys; for Mean percent difference in VT with respect to the 180-min value: blocking condition
# Protocol: Finally, to assess the possibility of reducing scan duration, time stability was assessed for the most promising radiotracer by sequentially shortening the time–activity curves from 180 to 60 min and reestimating the kinetic parameters. Scan-time reduction was deemed possible if the VT values from these shortened time–activity curves were within 10% of those estimated with the full time–activity curves.
# [3] = Plasma free fraction (fp), ultrafiltration method; format: in vitro ADME, rhesus monkeys (Macaca mulatta); settings: measured in triplicate per scan, mean ± SD
# Protocol: The plasma free fraction (fp) for each scan was measured in triplicate using the ultrafiltration method and calculated as the ratio of radioactivity in the filtrate to that in the plasma ([24]).
# [4] = molecular target: T1, GAT-1; assay: Guo plot comparing baseline VT of two radiotracers (relative affinity and BPND); format: in vivo, rhesus monkeys (Macaca mulatta)
# From the text: Occupancy plots ([26]) were used to estimate tiagabine occupancy and the nondisplaceable volume of distribution (VND). This VND value was used to compute the nondisplaceable binding potential (BPND = VT/VND − 1). To compare the performance between 2 radiotracers, a Guo plot ([27]) was created, using baseline VT values, to assess the relative affinity and BPND values of each radiotracer.
# [5] = Metabolite analysis of arterial plasma (unmetabolized parent fraction), column-switching HPLC; format: in vivo, rhesus monkeys (Macaca mulatta); settings: mean ± SD
# Protocol: Arterial blood samples were collected for each scan to measure the input function. Metabolite analysis was performed using an automatic column-switching high-performance liquid chromatography system ([22]) for 7 arterial blood samples collected at 5, 15, 30, 60, 90, 120, and 180 min. The radiometabolite-corrected arterial plasma input function was obtained by calculating the product of the fitted total plasma (fitted with a sum of exponentials) and unmetabolized parent fraction curves (using an integrated γ-function ([23])).
# T1 sequence (H9ELS5 1-599): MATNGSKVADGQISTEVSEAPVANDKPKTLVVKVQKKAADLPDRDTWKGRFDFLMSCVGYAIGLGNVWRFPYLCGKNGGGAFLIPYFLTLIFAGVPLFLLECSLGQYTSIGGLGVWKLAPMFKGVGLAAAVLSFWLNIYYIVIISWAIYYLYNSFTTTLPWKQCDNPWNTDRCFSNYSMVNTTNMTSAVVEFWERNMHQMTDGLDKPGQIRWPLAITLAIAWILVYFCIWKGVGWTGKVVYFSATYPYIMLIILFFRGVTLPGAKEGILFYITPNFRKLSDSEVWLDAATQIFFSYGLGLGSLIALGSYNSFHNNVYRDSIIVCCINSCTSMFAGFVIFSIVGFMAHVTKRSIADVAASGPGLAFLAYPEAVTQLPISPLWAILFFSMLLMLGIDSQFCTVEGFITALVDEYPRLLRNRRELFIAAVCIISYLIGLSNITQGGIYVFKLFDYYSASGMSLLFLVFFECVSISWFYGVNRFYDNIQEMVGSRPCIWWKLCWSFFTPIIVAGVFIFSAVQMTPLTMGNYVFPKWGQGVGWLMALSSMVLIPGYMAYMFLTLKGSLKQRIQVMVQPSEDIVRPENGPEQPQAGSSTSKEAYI
compound,measurement,setting,value
Cc1ccccc1C(=CCCN1CCCC(C(=O)O)C1)c1ccccc1[18F] (centres unmarked) [^18F-GATT-44],Median VT across ROIs,[1]; after blocking with tiagabine 0.5 mg/kg,1.7 mL/cm^3
same,Median VT across ROIs,[1]; baseline,3.5 mL/cm^3
same,VT,"[1]; Average of ROIs, baseline, 3 monkeys, mean ± SD",3.40 ± 0.52 mL/cm^3
same,VT,"[1]; Average of ROIs, blocking (tiagabine 0.5 mg/kg), 3 monkeys, mean ± SD",1.66 ± 0.11 mL/cm^3
same,VT,"[1]; Brain stem, baseline, averaged across 3 monkeys, mean ± SD",2.61 ± 0.42 mL/cm^3
same,VT,"[1]; Brain stem, blocking (tiagabine 0.5 mg/kg), 3 monkeys, mean ± SD",1.45 ± 0.20 mL/cm^3
same,VT,"[1]; Caudate nucleus, baseline, 3 monkeys, mean ± SD",2.25 ± 0.13 mL/cm^3
same,VT,"[1]; Caudate nucleus, blocking (tiagabine 0.5 mg/kg), 3 monkeys, mean ± SD",1.27 ± 0.11 mL/cm^3
same,VT,"[1]; Cerebellum, baseline, 3 monkeys, mean ± SD",3.36 ± 0.39 mL/cm^3
same,VT,"[1]; Cerebellum, blocking (tiagabine 0.5 mg/kg), 3 monkeys, mean ± SD",1.60 ± 0.13 mL/cm^3
same,VT,"[1]; Cingulate cortex, baseline, 3 monkeys, mean ± SD",4.30 ± 0.39 mL/cm^3
same,VT,"[1]; Cingulate cortex, blocking (tiagabine 0.5 mg/kg), 3 monkeys, mean ± SD",2.16 ± 0.18 mL/cm^3
same,VT,"[1]; Frontal cortex, baseline, 3 monkeys, mean ± SD",3.73 ± 0.46 mL/cm^3
same,VT,"[1]; Frontal cortex, blocking (tiagabine 0.5 mg/kg), 3 monkeys, mean ± SD",1.79 ± 0.04 mL/cm^3
same,VT,"[1]; Hippocampus, baseline, 3 monkeys, mean ± SD",2.98 ± 1.10 mL/cm^3
same,VT,"[1]; Hippocampus, blocking (tiagabine 0.5 mg/kg), 3 monkeys, mean ± SD",1.44 ± 0.07 mL/cm^3
same,VT,"[1]; Insula, baseline, 3 monkeys, mean ± SD",4.46 ± 0.67 mL/cm^3
same,VT,"[1]; Insula, blocking (tiagabine 0.5 mg/kg), 3 monkeys, mean ± SD",1.97 ± 0.07 mL/cm^3
same,VT,"[1]; Occipital cortex, baseline, 3 monkeys, mean ± SD",4.55 ± 0.74 mL/cm^3
same,VT,"[1]; Occipital cortex, blocking (tiagabine 0.5 mg/kg), 3 monkeys, mean ± SD",2.04 ± 0.11 mL/cm^3
same,VT,"[1]; Putamen, baseline, 3 monkeys, mean ± SD",2.71 ± 0.05 mL/cm^3
same,VT,"[1]; Putamen, blocking (tiagabine 0.5 mg/kg), 3 monkeys, mean ± SD",1.44 ± 0.12 mL/cm^3
same,VT,"[1]; Temporal cortex, baseline, 3 monkeys, mean ± SD",4.48 ± 1.24 mL/cm^3
same,VT,"[1]; Temporal cortex, blocking (tiagabine 0.5 mg/kg), 3 monkeys, mean ± SD",1.93 ± 0.05 mL/cm^3
same,VT,"[1]; Thalamus, baseline, 3 monkeys, mean ± SD",1.96 ± 0.10 mL/cm^3
same,VT,"[1]; Thalamus, blocking (tiagabine 0.5 mg/kg), 3 monkeys, mean ± SD",1.19 ± 0.17 mL/cm^3
same,Radiotracer clearance time (half-life = ln(2)/k2),"[1]; brain, baseline",175 ± 42 min
same,Blood volume fraction (Vb),"[1]; mean ± SD, n = 66 (11 ROIs × 6 scans)",0.036 ± 0.013 mL/cm^3
same,Overall spatial correlation (r) of regional distribution with ^11C-flumazenil,"[1]; nonhuman primates, P < 0.01, previously acquired ^11C-flumazenil data",0.87
same,Mean percent difference in VT on shortening scan from 180 to 120 min,[2]; hippocampus,1%
same,Mean percent difference in VT on shortening scan from 180 to 120 min,[2]; thalamus,−12%
same,Mean percent difference in VT with respect to the 180-min value,[2]; frontal cortex,−5%
same,Mean percent difference in VT with respect to the 180-min value,[2]; thalamus,3%
same,Free fraction,[3],13.5 ± 1.4%
same,KD ratio (KD^GATT-31/KD^GATT-44),[4]; Guo plot slope using measured fp values,1.06
same,BPND predicted higher than for ^18F-GATT-31,"[4]; Guo plot y-intercept, baseline VT",approximately 17%
same,Parent compound,[5]; 30 min,88 ± 4%
same,Parent compound,[5]; 90 min,83 ± 6%
